System: KRAS-mutant PDC tumor spheroid with HUVEC/MSC, viability
Experiment: Anticancer human tumor 327498-153-R-J2-PDC patient-derived uterine carcinosarcoma cell line growth inhibition [KRAS2]
Details: for IC50: curve of first compound; for viability, T/C: stronger effect = lower value
Summary of the method: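 Combination screen of spheroid viability in tumor-cell co-cultures with endothelial (HUVEC) and mesenchymal stem cell stroma. Each agent was tested in half-log dilutions, topping at clinical Cmax or at 10 microM without a known Cmax.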

[1] = second compound 0.0316 µM, first compound 0.0316 µM
[2] = second compound 0.0316 µM, first compound 0.1 µM
[3] = second compound 0.0316 µM, first compound 0.316 µM
[4] = second compound 0.0316 µM, first compound 1 µM
[5] = second compound 0.0316 µM, first compound 3.16 µM
[6] = second compound 0.1 µM, first compound 0.0316 µM
[7] = second compound 0.1 µM, first compound 0.1 µM
[8] = second compound 0.1 µM, first compound 0.316 µM
[9] = second compound 0.1 µM, first compound 1 µM
[10] = second compound 0.1 µM, first compound 3.16 µM
[11] = second compound 0.316 µM, first compound 0.0316 µM
[12] = second compound 0.316 µM, first compound 0.1 µM
[13] = second compound 0.316 µM, first compound 0.316 µM
[14] = second compound 0.316 µM, first compound 1 µM
[15] = second compound 0.316 µM, first compound 3.16 µM
[16] = second compound 1 µM, first compound 0.0316 µM
[17] = second compound 1 µM, first compound 0.1 µM
[18] = second compound 1 µM, first compound 0.316 µM
[19] = second compound 1 µM, first compound 1 µM
[20] = second compound 1 µM, first compound 3.16 µM
[21] = second compound 3.16 µM, first compound 0.0316 µM
[22] = second compound 3.16 µM, first compound 0.1 µM
[23] = second compound 3.16 µM, first compound 0.316 µM
[24] = second compound 3.16 µM, first compound 1 µM
[25] = second compound 3.16 µM, first compound 3.16 µM
[26] = second compound 0.0316 µM, first compound 10 µM
[27] = second compound 0.1 µM, first compound 10 µM
[28] = second compound 0.316 µM, first compound 10 µM
[29] = second compound 1 µM, first compound 10 µM
[30] = second compound 3.16 µM, first compound 10 µM
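Note: spheroids exposed to agents for seven days before reading.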
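Throughout, for viability, T/C: 100% = DMSO vehicle wells so lower means fewer viable cells.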

| Compound | IC50 (second compound 0.0316 µM) | IC50 (second compound 0.1 µM) | IC50 (second compound 0.316 µM) | IC50 (second compound 1 µM) | IC50 (second compound 3.16 µM) | viability, T/C [1] | viability, T/C [2] | viability, T/C [3] | viability, T/C [4] | viability, T/C [5] | viability, T/C [6] | viability, T/C [7] | viability, T/C [8] | viability, T/C [9] | viability, T/C [10] | viability, T/C [11] | viability, T/C [12] | viability, T/C [13] | viability, T/C [14] | viability, T/C [15] | further results |
| --- | --- | --- | --- | --- | --- | --- | --- | --- | --- | --- | --- | --- | --- | --- | --- | --- | --- | --- | --- | --- | --- |
| CC1COCCN1c1cc(-c2ccnn2C)c2ccnc(-c3ccn[nH]3)c2n1 (stereo not given) + C=CC(=O)N1CCN(c2nc(OCC3CCCN3C)nc3c2CCN(c2cccc4cccc(C)c24)C3)CC1CC#N | 12.5 nM | 10 nM | < 10 nM | < 10 nM | < 10 nM | 26.6% | 8.55% | 6.25% | 6.05% | 5.16% | 21% | 9.02% | 5.92% | 6.34% | 5.2% | 21.6% | 7.42% | 4.41% | 4.61% | 4.35% | viability, T/C (second compound 0.0316 µM, first compound 0.01 µM): 55.6%; viability, T/C (second compound 0.1 µM, first compound 0.01 µM): 50.2%; viability, T/C (second compound 0.316 µM, first compound 0.01 µM): 35.1%; viability, T/C (second compound 1 µM, first compound 0.01 µM): 29.9%; viability, T/C [16]: 14.6%; viability, T/C [17]: 3.87%; viability, T/C [18]: 3.63%; viability, T/C [19]: 4.58%; viability, T/C [20]: 3.92%; viability, T/C (second compound 3.16 µM, first compound 0.01 µM): 0.17%; viability, T/C [21]: 0.63%; viability, T/C [22]: 0.14%; viability, T/C [23]: 0.14%; viability, T/C [24]: 0.29%; viability, T/C [25]: 0.22% |
| CC1OCC2(CCN(c3cnc(Sc4ccnc(N)c4Cl)c(N)n3)CC2)C1N (stereo not given) + C=CC(=O)N1CCN(c2nc(OCC3CCCN3C)nc3c2CCN(c2cccc4cccc(C)c24)C3)CC1CC#N | < 31.6 nM | < 31.6 nM | < 31.6 nM | < 31.6 nM | < 31.6 nM | 44% | 40.3% | 23.9% | 22.6% | 19.6% | 41.2% | 32.9% | 24.9% | 21.2% | 16.2% | 40.6% | 30.9% | 24.4% | 20.4% | 16.4% | viability, T/C [26]: 14.9%; viability, T/C [27]: 16.4%; viability, T/C [28]: 15.3%; viability, T/C [16]: 33%; viability, T/C [17]: 24.2%; viability, T/C [18]: 23.1%; viability, T/C [19]: 19.3%; viability, T/C [20]: 14.3%; viability, T/C [29]: 13.5%; viability, T/C [21]: 0.14%; viability, T/C [22]: 0.15%; viability, T/C [23]: 0.14%; viability, T/C [24]: 0.13%; viability, T/C [25]: 0.15%; viability, T/C [30]: 0.24% |
| Cn1nccc1Nc1nccc(-c2cc3c(s2)C(C)(C)N(CCN2CCOCC2)C3=O)n1 + C=CC(=O)N1CCN(c2nc(OCC3CCCN3C)nc3c2CCN(c2cccc4cccc(C)c24)C3)CC1CC#N | 422 nM | 227 nM | < 31.6 nM | < 31.6 nM | < 31.6 nM | 62.5% | 54.6% | 55.6% | 25.2% | 40.4% | 60.2% | 62.1% | 45.5% | 33% | 36.2% | 42.9% | 45% | 37.6% | 33.6% | 31.1% | viability, T/C [26]: 34.7%; viability, T/C [27]: 28.8%; viability, T/C [28]: 27.6%; viability, T/C [16]: 39.6%; viability, T/C [17]: 31.1%; viability, T/C [18]: 29.7%; viability, T/C [19]: 33.3%; viability, T/C [20]: 30.3%; viability, T/C [29]: 21.3%; viability, T/C [21]: 0.15%; viability, T/C [22]: 0.17%; viability, T/C [23]: 0.15%; viability, T/C [24]: 0.16%; viability, T/C [25]: 0.54%; viability, T/C [30]: 0.21% |

From PubChem BioAssay AID1963867 (Molecular Pharmacology Branch, DTP, NCI, 2024)
